Test system: Plasmodium falciparum
Assay: In vitro anti-malarial activity against Plasmodium falciparum, IC50 assay / [3H]-Hypoxanthine incorporation assay
Assay type: cell-based
Details: Erythrocyte; Plasmodium falciparum strains in parasitized red blood cells, [3H]-hypoxanthine incorporation, 48 hours at 37°C
Experimental: The compounds of this invention may be tested in one of several biological assays to determine the concentration of compound which is required to have a given pharmacological effect. In vitro anti-malarial activity against Plasmodium falciparum. IC50 assay / [^3H]-Hypoxanthine assay
The culture medium comprised RPMI 1640 with 25mM HEPES, sodium bicarbonate and glutamine (GIBCO™ cat. ref.: 52400), supplemented with 10% of pooled human sera AB (Irvine Scientific, cat. ref.: 5009) and HT supplement (0.15 mM hypoxanthine and 24 µM thymidine), (GIBCO™ cat. ref.: 41065). Human sera were decomplemented 30 min. at 56°C, aliquoted and stored frozen at -20°C until use in this culture medium.
This culture medium ("complete medium") was usually prepared fresh just before use and pre-warmed to 37°C.
Red blood cells O+ stock suspensions were prepared from whole blood bags coming from incomplete blood donation, provided by the Spanish Red Cross (<25 days after sampling). This "whole blood" was aliquoted and stored at 4°C.
To prepare red blood cells for the assay, the whole blood was centrifuged and washed 3 times with RPMI without serum. The upper phase, containing white blood cells was removed. The washed red blood cells were kept as a 50 % suspension in complete medium. The prepared cells were stored at 4°C and were employed in the assay at any time up to 4 days after preparation.
Test compounds were dissolved at 2 mg/ml in 100% DMSO on the day of the assay. If necessary, complete dissolution was achieved by gentle heating (the mixture was heated at a temperature <37°C) and sonication (sonication bath).
For IC50 determinations, 10 serial 2-fold dilutions were prepared in complete medium in the presence of a constant amount of DMSO. Any obvious signs of insolubility of the stock solutions in 100% DMSO or precipitation when these solutions were diluted in assay media, were recorded.
Plasmodium falciparum strains were maintained in complete medium at an hematocrit of 5% in continuous culture using a method adapted from that published by Trager and Jensen(1) and Traeger(2).
The parasitemia was calculated by counting the percentage of parasitized erythrocytes by optical microscopy. Thin films of blood were made every day from each culture flask, fixed with methanol and stained for 10 min. in Giemsa (Merck, cat. ref.: 1.09204) at 10 % in buffered water pH 7.2. The glass slides were observed and counted with an optical microscope (Nikon, Eclipse E200) equipped with a 100 X immersion oil objective.
The culture was maintained at an hematocrit of 5%, with a daily change of medium and was diluted when parasitemia had reached about 5%.
[^3H] Hypoxanthine incorporation assay was conducted using a method adapted from Desjardins et al. (3). The assays were performed in 96 wells flat bottom microplates. • 1. Serial dilutions of the test compounds (50µl of a 5X solution / well) were deposited in duplicate. Compounds of the invention were tested in this assay. Chloroquine and Atovaquone were used as control compounds for each assay. • 2. […] [^3H]-Hypoxanthine (Amersham Biosciences, cat. ref.: TRK74) was added extemporaneously to the inoculum suspension at a concentration of 1 µCi/ml (equating to […]). 200 µl of the resulting suspension was distributed into each well (other than the control well H12 described below) leading to a final volume of 250 µl per well, at 2% of hematocrit and 0.5 % of parasitemia / well. • 4. […]

IC50 [µg/mL] | Structure (SMILES)
< 0.125 | Cc1[nH]c(C)c(-c2ccc(-c3ccc(CN4CCC(c5ccc(OC(F)(F)F)cc5)CC4)cc3)nc2)c(=O)c1Cl.Cl [Example 64, 5-chloro-2,6-dimethyl-6'-{4-[(4-{4-[(trifluoromethyl)oxy]phenyl}-1-piperidinyl)methyl]phenyl}-3,3'-bipyridin-4(1H)-one hydrochloride]
< 0.125 | Cc1[nH]c(CO)c(-c2ccc(-c3ccc(CN4CCC(c5ccc(OC(F)(F)F)cc5)CC4)cc3)cc2)c(=O)c1Cl.Cl [Example 62, 3-chloro-6-(hydroxymethyl)-2-methyl-5-{4'-[(4-{4-[(trifluoromethyl)oxy]phenyl}-1-piperidinyl)methyl]-4-biphenylyl}-4(1H)-pyridinone hydrochloride]

Structure (SMILES) | IC50 [µg/mL]
Cc1[nH]c(C)c(-c2ccc(C3=CCN(Cc4ccc(OC(F)(F)F)cc4)CC3)cc2)c(=O)c1Cl.Cl [Example 32, 3-Chloro-2,6-dimethyl-5-{4-[1-({4-[(trifluoromethyl)oxy]phenyl}methyl)-1,2,3,6-tetrahydro-4-pyridinyl]phenyl}-4(1H)-pyridinone hydrochloride] | < 0.125
